Source: patent publication US11976083B2, “Inhibitors of peptidylarginine deiminases” (Gilead Sciences, Inc., priority 2020, dated 2024)

What follows are molecules tested against T1, human PAD4 (Homo sapiens, UniProt Q9UM07) (assay: In vitro PAD4 BAEE biochemical assay). Conditions: BAEE substrate 3 mM, 5 nM PAD4, 2 mM calcium chloride; geometric mean of multiple experiments.
T1 construct: human PAD4 (NM_012387), A2-P663, was PCR amplified; His-SUMO (N, cleaved yes); made in house; host or cells: E. coli BL21(DE3)
How it was run: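 Fluorescence read-out (ex 405/em 535 nm) of isoindole formed from ammonia, o-phthalaldehyde and DTT after EDTA stop. Reaction: 5 nM PAD4, 2 mM CaCl2, 3 mM BAEE, 2 h, 25 °C, after 30 min enzyme–compound preincubation. Normalised to BB-Cl-Amidine (50 µM) and DMSO controls.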

T1 sequence (Q9UM07 2-663): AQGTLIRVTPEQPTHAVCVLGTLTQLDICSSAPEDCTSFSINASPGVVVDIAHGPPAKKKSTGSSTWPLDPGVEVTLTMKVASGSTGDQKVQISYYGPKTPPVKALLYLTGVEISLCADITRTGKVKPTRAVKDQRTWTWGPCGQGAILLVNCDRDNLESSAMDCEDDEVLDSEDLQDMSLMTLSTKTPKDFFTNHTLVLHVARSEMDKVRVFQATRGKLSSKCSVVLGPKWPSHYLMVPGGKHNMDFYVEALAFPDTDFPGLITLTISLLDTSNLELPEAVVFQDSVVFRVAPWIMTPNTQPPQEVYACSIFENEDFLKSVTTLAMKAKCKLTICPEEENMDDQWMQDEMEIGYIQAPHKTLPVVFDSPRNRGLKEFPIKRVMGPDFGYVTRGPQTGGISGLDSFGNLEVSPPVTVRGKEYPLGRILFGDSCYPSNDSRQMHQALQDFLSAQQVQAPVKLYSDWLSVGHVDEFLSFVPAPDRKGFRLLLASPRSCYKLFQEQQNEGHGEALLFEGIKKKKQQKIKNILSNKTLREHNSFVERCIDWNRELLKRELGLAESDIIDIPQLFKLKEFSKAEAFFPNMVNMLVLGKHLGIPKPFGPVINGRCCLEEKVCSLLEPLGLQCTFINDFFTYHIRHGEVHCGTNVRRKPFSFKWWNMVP

Row | Compound | IC50 [µM]
1 | COc1cc(C(=O)N2[C@H]3CC[C@@H]2[C@H](N)C3)cc2nc(-c3cc4ccc5nc4n3CCC3(CC3)COCCC(=O)N[C@@H]5C)c(C)n12 [Example 331, (11~{R})-17-[7-[(1~{R},2~{R},4~{S})-2-amino-7-azabicyclo[2.2.1]heptane-7-carbonyl]-5-methoxy-3-methyl-imidazo[1,2-a]pyridin-2-yl]-11-methyl-spiro[6-oxa-1,10,19-triazatricyclo[10.5.2.0^{15,18}]nonadeca-12(19),13,15(18),16-tetraene-4,1′-cyclopropane]-9-one] | 0.069
2 | COc1cc(C(=O)N[C@H]2CNCC[C@@H]2F)cc2nc(-c3cc4ccc5nc4n3CCCCC[C@@H]3C[C@H]3C(=O)N[C@@H]5C)n(C)c12 [Example 184, ~{N}-[(3~{S},4~{S})-4-fluoro-3-piperidyl]-7-methoxy-1-methyl-2-[(2~{R},5~{R},7~{R})-2-methyl-4-oxo-3,13,19-triazatetracyclo[11.5.2.0^{5,7}.0^{16,20}]icosa-1(19),14,16(20),17-tetraen-14-yl]benzimidazole-5-carboxamide] | 0.042
3 | C[C@H]1NC(=O)[C@H]2[C@@H](CCCC(F)(F)Cn3c(-c4nc5cc(C(=O)N[C@H]6CNCC[C@@H]6F)c(F)cc5n4C4CC4)cc4ccc1nc43)C2(F)F [Example 389, 1-cyclopropyl-6-fluoro-~{N}-[(3~{S},4~{S})-4-fluoro-3-piperidyl]-2-[(2~{R},5~{R},7~{R})-6,6,11,11-tetrafluoro-2-methyl-4-oxo-3,13,19-triazatetracyclo[11.5.2.0^{5,7}.0^{16,20}]icosa-1(19),14,16(20),17-tetraen-14-yl]benzimidazole-5-carboxamide] | 0.031
4 | COc1cc(C(=O)N[C@H]2CNCC[C@@H]2O)cc2nc(-c3cc4ccc5nc4n3CCCCCCC(C)(C)C(=O)N[C@@H]5C)n(C)c12 [Example 244, ~{N}-[(3~{S},4~{S})-4-hydroxy-3-piperidyl]-7-methoxy-1-methyl-2-[(11~{R})-8,8,11-trimethyl-9-oxo-1,10,19-triazatricyclo[10.5.2.0^{15,18}]nonadeca-12(19),13,15(18),16-tetraen-17-yl]benzimidazole-5-carboxamide] | 2.58
5 | COc1cc(C(=O)N2CCC[C@@H](N)C2)cn2nc(-c3cc4ccc5nc4n3CCCCCCC(C)(C)C(=O)N[C@@H]5C)c(C)c12 [Example 27, (11~{R})-17-[6-[(3~{R})-3-aminopiperidine-1-carbonyl]-4-methoxy-3-methyl-pyrazolo[1,5-a]pyridin-2-yl]-8,8,11-trimethyl-1,10,19-triazatricyclo[10.5.2.0^{15,18}]nonadeca-12(19),13,15(18),16-tetraen-9-one] | 0.201
6 | COc1cc(C(=O)N2CCC[C@@H](N)C2)cc2nc(-c3cc4ccc5nc4n3C[C@H]3C[C@@H]3COC(C)CC(=O)N[C@@H]5C)n(C)c12 (stereo partly drawn) [Example 271, (3~{S},5~{S},12~{R})-18-[5-[(3~{R})-3-aminopiperidine-1-carbonyl]-7-methoxy-1-methyl-benzimidazol-2-yl]-8,12-dimethyl-7-oxa-1,11,20-triazatetracyclo[11.5.2.0^{3,5}.0^{16,19}] icosa-13(20),14,16(19),17-tetraen-10-one] | 0.065
7 | COc1cc(C(=O)N[C@H]2CNCC[C@H]2F)cc2nc(-c3cc4ccc5nc4n3CCCCCCC(C)(C)C(=O)N[C@@H]5C)n(C)c12 [Example 69, ~{N}-[(3~{S},4~{R})-4-fluoro-3-piperidyl]-7-methoxy-1-methyl-2-[(11~{R})-8,8,11-trimethyl-9-oxo-1,10,19-triazatricyclo[10.5.2.0^{15,18}]nonadeca-12(19),13,15(18),16-tetraen-17-yl]benzimidazole-5-carboxamide] | 0.201
8 | COc1cc(C(=O)N[C@H]2CNCC[C@@H]2F)cc2nc(-c3cc4ccc5nc4n3CCCCC[C@]3(C)C[C@H]3C(=O)N[C@@H]5C)n(C)c12 [Example 618, 2-[(2~{R},5~{R},7~{R})-2,7-dimethyl-4-oxo-3,13,19-triazatetracyclo[11.5.2.0^ {5,7}.0^{16,20}]icosa-1(19),14,16(20), 17-tetraen-14-yl]- ~{N}-[(3~{S},4~{S})-4-fluoro-3-piperidyl]-7-methoxy-1-methyl-benzimidazole-5-carboxamide] | 0.069
9 | COc1cc(C(=O)N2CCC[C@@H](N)C2)cc2nc(-c3cc4ccc5nc4n3CCCC[C@H]3C[C@@H]3C(=O)N[C@@H]5C)n(C)c12 [Example 151, (2~{R},5~{S},7~{S})-13-[5-[(3~{R})-3-aminopiperidine-1-carbonyl]-7-methoxy-1-methyl-benzimidazol-2-yl]-2-methyl-3,12,18-triazatetracyclo[10.5.2.0^{5,7}.0^{15,19}] nonadeca-1(18),13,15(19),16-tetraen-4-one] | 0.123

Now from value to molecule:

Row | IC50 [µM] | Compound
10 | 0.048 | COc1cc(C(=O)N2C[C@H](N)[C@@H]3CC[C@H]2C3)cc2nc(-c3cc4ccc5nc4n3CC(F)(F)CCCCC(C)(C)C(=O)N[C@@H]5C)n(C)c12 [Example 943, (11~{R})-17-[5-[(1~{S},4~{R}, 5~{R})-4-amino-2-azabicyclo [3.2.1]octane-2-carbonyl]-7-methoxy-1-methyl-benzimidazol-2-yl]-3,3-difluoro-8,8,11-trimethyl-1,10,19-triazatricyclo[10.5.2.0^{15,18}] nonadeca-12(19), 13,15(18),16-tetraen-9-one]
11 | 0.033 | COc1cc(C(=O)N2CCC[C@@H](N)[C@H]2C)cc2nc(-c3cc4ccc5nc4n3CC(F)(F)CCCc3cncc(F)c3C(=O)N[C@@H]5C)n(C)c12 [Example 679, (2~{R})-17-[5-[(2~{R},3~ {R})-3-amino-2-methyl-piperidine-1-carbonyl]-7-methoxy-1-methyl-benzimidazol-2-yl]-6,14,14-trifluoro-2-methyl-3,8,16,22-tetrazatetracyclo[14.5.2.0^ {5,10).0^{19,23}] tricosa-1(22),5(10),6,8,17, 19(23),20-heptaen-4-one]
12 | 0.017 | C[C@H]1NC(=O)c2ccnn2CCCCCn2c(-c3nc4cc(C(=O)N5C[C@H](N)[C@@H]6CC[C@H]5C6)cc(F)c4n3C3CC3)cc3ccc1nc32 [Example 912, (2~{R})-16-[5-[(1~{S},4~{R},5~ {R})-4-amino-2-azabicyclo [3.2.1]octane-2-carbonyl]-1-cyclopropyl-7-fluoro-benzimidazol-2-yl]-2-methyl-3,8,9,15,21-pentazatetracyclo [13.5.2.0^{5,9}.0^{18,22}] docosa-1(21),5,7,16,18(22),19-hexaen-4-one]
13 | 0.048 | CO[C@@H]1CCN(C(=O)c2ccc3c(c2)nc(-c2cc4ccc5nc4n2CCCCCc2ccnc(C)c2C(=O)N[C@@H]5C)n3C2CC2)C[C@@H]1N [Example 696, (2~{R})-17-[5-[(3~{S}, 4~{R})-3-amino-4-methoxy-piperidine-1-carbonyl]-1-cyclopropyl-benzimidazol-2-yl]-2,6-dimethyl-3,7,16,22-tetrazatetracyclo [14.5.2.0^{5,10}.0^{19,23}] tricosa-1(22),5(10), 6,8,17,19(23),20-heptaen-4-one]
14 | 0.028 | COc1cc(C(=O)N2C[C@H](N)[C@@H]3CC[C@H]2C3)cc2nc(-c3cc4ccc5nc4n3CCCCCC[C@@](C)(F)C(=O)N[C@@H]5C)n(C)c12 [Example 948, (8~{R},11~{R})-17-[5-[(1~{S},4~{R},5~{R})-4-amino-2-azabicyclo[3.2.1]octane-2-carbonyl]-7-methoxy-1-methyl-benzimidazol-2-yl]-8-fluoro-8,11-dimethyl-1,10,19-triazatricyclo[10.5.2.0^ {15,18}]nonadeca-12(19), 13,15(18),16-tetraen-9-one]
15 | 0.026 | C[C@H]1NC(=O)c2ccc(C3CC3)nc2CCCCCn2c(-c3nc4cc(C(=O)N5C[C@H](N)[C@@H]6CC[C@H]5C6)cc(F)c4n3C3CC3)cc3ccc1nc32 [Example 813, (2˜{R})-17-[5-[(1˜{S},4˜{R},5˜{R})-4-amino-2-azabicyclo[3.2.1]octane-2-carbonyl]-1-cyclopropyl-7-fluoro-benzimidazol-2-yl]-8-cyclopropyl-2-methyl-3,9,16,22-tetrazatetracyclo[14.5.2.0^{5,10}.0^{19,23}]tricosa-1(21),5(10),6,8,17,19,22-heptaen-4-one]
16 | 0.02 | C[C@@H]1[C@H](N)CCCN1C(=O)c1cc(F)c2c(c1)nc(-c1cc3ccc4nc3n1CCCCC[C@]1(F)C[C@H]1C(=O)N[C@@H]4C)n2C1CC1 [Example 705, (2~{R},5~{S},7~{S})-14-[5-[(2~{R},3~{R})-3-amino-2-methyl-piperidine-1-carbonyl]-1-cyclopropyl-7-fluoro-benzimidazol-2-yl]-7-fluoro-2-methyl-3,13,19-triazatetracyclo[11.5.2.0^ {5,7}.0^{16,20}]icosa-1(19),14,16(20),17-tetraen-4-one]
17 | 0.019 | COc1cc(C(=O)N2CCC[C@@H](N)[C@H]2C)cc2nc(-c3cc4ccc5nc4n3CCCCC[C@]3(F)C[C@H]3C(=O)N[C@@H]5C)n(C)c12 [Example 706, (2~{R},5~{S},7~{S})-14-[5-[(2~{R},3~{R})-3-amino-2-methyl-piperidine-1-carbonyl]-7-methoxy-1-methyl-benzimidazol-2-yl]-7-fluoro-2-methyl-3,13,19-triazatetracyclo[11.5.2.0^ {5,7}.0^{16,20}]icosa-1(19),14,16(20),17-tetraen-4-one]
18 | 0.068 | COc1cc(C(=O)N2C[C@H](N)[C@@H]3CC[C@H]2C3)cc2nc(-c3cc4ccc5nc4n3CC(F)(F)CCCCC(C)(C)C(=O)N[C@@H]5C)n(C3CC3)c12 [Example 941, (11~{R})-17-[5-[(1~{S},4~{R}, 5~{R})-4-amino-2-azabicyclo [3.2.1]octane-2-carbonyl]-1-cyclopropyl-7-methoxy-benzimidazol-2-yl]-3,3-difluoro-8,8,11-trimethyl-1,10,19-triazatricyclo[10.5.2.0^{15,18}] nonadeca-12(19), 13,15(18),16-tetraen-9-one]
